Laboratory results: patent publication US20090093469A1, “Phenylaminopropanol Derivatives and Methods of Their Use” (WYETH, priority 2004, published 2009)
Where a name gives a salt, the structure may show the parent alone.

target: T1, hNET (Homo sapiens, UniProt P23975); experiment: Norepinephrine (NE) uptake assay in MDCK-Net6 cells stably transfected with human hNET; type: cell-based; conditions: MDCK-Net6, read-out: % Inhibition @ 1 μM (hNET)
T1 construct: expressed in transfected cells
Protocol: Cells were plated at 300,000/T75 flask and cells were split twice weekly. […] Cells were plated at 250,000 cells/T75 flask and split twice weekly.
On day 1, cells were plated at 3,000 cells/well in growth medium and maintained in a cell incubator (37° C., 5% CO2). On day 2, growth medium was replaced with 200 μl of assay buffer (25 mM HEPES; 120 mM NaCl; 5 mM KCl; 2.5 mM CaCl2; 1.2 mM MgSO4; 2 mg/ml glucose (pH 7.4, 37° C.)) containing 0.2 mg/ml ascorbic acid and 10 μM pargyline. Plates containing cells with 200 μl of assay buffer were equilibrated for 10 minutes at 37° C. prior to addition of compounds. A stock solution of desipramine was prepared in DMSO (10 mM) and delivered to triplicate wells containing cells for a final test concentration of 1 μM. Data from these wells were used to define non-specific NE uptake (minimum NE uptake). Test compounds were prepared in DMSO (10 mM) and diluted in assay buffer according to test range (1 to 10,000 nM). Twenty-five microliters of assay buffer (maximum NE uptake) or test compound were added directly to triplicate wells containing cells in 200 μl of assay buffer. The cells in assay buffer with test compounds were incubated for 20 minutes at 37° C. To initiate the NE uptake, [^3H]NE diluted in assay buffer (120 nM final assay concentration) was delivered in 25 μl aliquots to each well and the plates were incubated for 5 minutes (37° C.). The reaction was terminated by decanting the supernatant from the plate. The plates containing cells were washed twice with 200 μl assay buffer (37° C.) to remove free radioligand. The plates were then inverted, left to dry for 2 minutes, then reinverted and air-dried for an additional 10 minutes. The cells were lysed in 25 μl of 0.25 N NaOH solution (4° C.), placed on a shake table and vigorously shaken for 5 minutes. After cell lysis, 75 μl of scintillation cocktail was added to each well and the plates were sealed with film tape. The plates were returned to the shake table and vigorously shaken for a minimum of 10 minutes to ensure adequate partitioning of organic and aqueous solutions. The plates were counted in a Wallac Microbeta counter (PerkinElmer) to collect the raw cpm data.
For each experiment, a data stream of cpm values collected from the Wallac Microbeta counter was downloaded to a Microsoft Excel statistical application program. Calculations of EC50 values were made using the transformed-both-sides logistic dose response program written by Wyeth Biometrics Department.

T1 sequence (P23975 whole entry): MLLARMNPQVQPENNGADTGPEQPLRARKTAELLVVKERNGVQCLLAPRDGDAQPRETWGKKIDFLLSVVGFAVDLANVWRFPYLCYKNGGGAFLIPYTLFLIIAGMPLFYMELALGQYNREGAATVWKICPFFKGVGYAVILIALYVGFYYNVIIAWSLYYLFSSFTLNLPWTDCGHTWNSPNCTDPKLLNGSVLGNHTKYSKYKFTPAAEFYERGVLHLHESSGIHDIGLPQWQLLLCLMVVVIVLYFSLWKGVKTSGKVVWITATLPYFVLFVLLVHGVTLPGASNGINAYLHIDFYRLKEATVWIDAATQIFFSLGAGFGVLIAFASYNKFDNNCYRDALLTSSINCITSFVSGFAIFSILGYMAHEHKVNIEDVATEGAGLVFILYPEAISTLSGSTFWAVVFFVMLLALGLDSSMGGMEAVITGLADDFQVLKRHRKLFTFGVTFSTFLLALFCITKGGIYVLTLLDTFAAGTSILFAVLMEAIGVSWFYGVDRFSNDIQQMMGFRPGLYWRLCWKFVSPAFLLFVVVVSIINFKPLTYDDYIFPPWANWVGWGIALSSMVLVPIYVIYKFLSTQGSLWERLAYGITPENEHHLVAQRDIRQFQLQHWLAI

| SMILES | inhibition at 1 µM [%] |
| --- | --- |
| CNC[C@@H](O)[C@H](c1cccc(Cl)c1)n1ccc2ccccc21 [Example 33, (1S,2R)-1-(3-chlorophenyl)-1-(1H-indol-1-yl)-3-(methylamino)propan-2-ol hydrochloride] | 99.4 |
| CNC[C@@H](O)[C@H](c1ccccc1)n1c(=O)n(C2CCC2)c2ccccc21 [Example 197, 1-cyclobutyl-3-[(1S,2R)-2-hydroxy-3-(methylamino)-1-phenylpropyl]-1,3-dihydro-2H-benzimidazol-2-one hydrochloride] | 97 |
| CNC[C@H](O)[C@@H](c1ccccc1C)n1ccc2ccccc21 (single isomer, unassigned) [Example 54, hydrochloride] | 68.6 |
| CCn1c(=O)n([C@@H](c2ccccc2)[C@H](O)CNC)c2c(F)cccc21 [Example 207, 1-Ethyl-4-fluoro-3-[(1S,2R)-2-hydroxy-3-(methylamino)-1-phenylpropyl]-1,3-dihydro-2H-benzimidazol-2-one hydrochloride] | 98.3 |
| CNC[C@@H](O)[C@H](c1ccccc1)n1ccc2cc(OC)ccc21 [Example 76, (1S,2R)-1-(5-methoxy-1H-indol-1-yl)-3-(methylamino)-1-phenylpropan-2-ol hydrochloride] | 75.2 |
| CNC[C@@H](O)[C@H](c1ccccc1Cl)n1ccc2ccccc21 [Example 38, (1S,2R)-1-(2-chlorophenyl)-1-(1H-indol-1-yl)-3-(methylamino)propan-2-ol hydrochloride] | 71.9 |
| CNC[C@@H](O)[C@H](c1cccc(F)c1)n1ccc2ccc(F)cc21 [Example 133, (1S,2R)-1-(6-fluoro-1H-indol-1-yl)-1-(3-fluorophenyl)-3-(methylamino)propan-2-ol hydrochloride] | 96.4 |
| CNC[C@H](O)[C@@H](c1ccccc1)n1ccc2cc(Cl)ccc21 (racemic) [Example 26, (1RS,2SR)-1-(5-chloro-1H-indol-1-yl)-3-(methylamino)-1-phenylpropan-2-ol hydrochloride] | 54 |
| CNC[C@@H](O)[C@H](c1cccc(OC)c1)n1ccc2ccccc21 [Example 69, (1S,2R)-1-(1H-indol-1-yl)-1-(3-methoxyphenyl)-3-(methylamino)propan-2-ol hydrochloride] | 87.5 |
| CNC[C@@H](O)[C@H](c1ccc(Cl)cc1)n1ccc2ccccc21 [Example 34, (1S,2R)-1-(4-chlorophenyl)-1-(1H-indol-1-yl)-3-(methylamino)propan-2-ol hydrochloride] | 78.4 |
| CCn1c(=O)n([C@@H](c2cccc(F)c2)[C@H](O)CNC)c2ccccc21 [Example 199, 1-Ethyl-3-[1-(3-fluoro-phenyl)-2-hydroxy-3-methylamino-propyl]-1,3-dihydro-benzimidazol-2-one hydrochloride] | 99.1 |
| CNC[C@@H](O)[C@H](c1cccc(C)c1)n1ccc2ccccc21 [Example 52, (1S,2R)-1-(1H-indol-1-yl)-3-(methylamino)-1-(3-methylphenyl)propan-2-ol hydrochloride] | 94.3 |

same assay, conditions: test compound 1 μM; [3H]NE uptake, MDCK-Net6 cells; read-out: % Inhibition @ 1 μM (hNET)

| inhibition at 1 µM [%] | SMILES |
| --- | --- |
| 53.4 | O[C@@H](CNCC1CCCCC1)[C@@H](c1ccccc1)n1ccc2ccccc21 (racemic) [Example 8, (1RS,2SR)-3-[(cyclohexylmethyl)amino]-1-(1H-indol-1-yl)-1-phenylpropan-2-ol hydrochloride] |
| 97.1 | CNC[C@@H](O)[C@H](c1ccccc1)n1ccc2c(F)cccc21 [Example 182, (1S,2R)-1-(4-fluoro-1H-indol-1-yl)-3-(methylamino)-1-phenylpropan-2-ol hydrochloride] |
| 63.9 | CNC[C@@H](O)[C@](C)(c1ccccc1)n1ccc2ccccc21 [Example 191, (2R,3S)-3-(1H-indol-1-yl)-1-(methylamino)-3-phenylbutan-2-ol hydrochloride] |
| 12.3 | O[C@H](CN1CCOCC1)[C@H](c1cccc(F)c1)n1ccc2ccccc21 [Example 56, (1S,2R)-1-(3-fluorophenyl)-1-(1H-indol-1-yl)-3-morpholin-4-ylpropan-2-ol hydrochloride] |
| 73.1 | CNC[C@@H](O)[C@H](c1ccccc1)n1ccc2ccc(C)cc21 [Example 90, (1S,2R)-3-(methylamino)-1-(6-methyl-1H-indol-1-yl)-1-phenylpropan-2-ol hydrochloride] |
| 99.7 | CNC[C@@H](O)[C@H](c1cccc(F)c1)n1cc(-c2ccccc2C)c2ccccc21 [Example 62, (1S,2R)-1-(3-fluorophenyl)-3-(methylamino)-1-[3-(2-methylphenyl)-1H-indol-1-yl]propan-2-ol] |
| 13.1 | CC(C)NC[C@H](O)[C@@H](c1ccccc1)n1ccc2ccccc21 (racemic) [Example 6, (1RS,2SR)-1-(1H-indol-1-yl)-3-(isopropylamino)-1-phenylpropan-2-ol hydrochloride] |
| 17.6 | O[C@@H](CN1CCOCC1)[C@@H](c1ccccc1)n1ccc2ccccc21 (racemic) [Example 3, (1RS,2SR)-1-(1H-indol-1-yl)-3-morpholin-4-yl-1-phenylpropan-2-ol hydrochloride] |
| 99.7 | CNC[C@@H](O)[C@H](c1ccccc1)N1CCc2cc(Cl)ccc21 [Example 87, (1S,2R)-1-(5-chloro-2,3-dihydro-1H-indol-1-yl)-3-(methylamino)-1-phenylpropan-2-ol hydrochloride] |
| 96.6 | CNC[C@@H](O)[C@H](c1cccc(F)c1)n1cc(-c2cccc(C)c2)c2ccccc21 [Example 48, (1S,2R)-1-(3-fluorophenyl)-3-(methylamino)-1-[3-(3-methylphenyl)-1H-indol-1-yl]propan-2-ol hydrochloride] |
| 86.6 | CNC[C@@H](O)[C@H](c1ccccc1)N1CCc2cccc(C)c21 [Example 66, (1S,2R)-3-(methylamino)-1-(7-methyl-2,3-dihydro-1H-indol-1-yl)-1-phenylpropan-2-ol hydrochloride] |
| 99.7 | CNC[C@@H](O)[C@H](c1ccccc1)N1C(=O)C2(CCCCC2)c2cc(Br)ccc21 [Example 113, 5′-bromo-1′-[(1S,2R)-2-hydroxy-3-(methylamino)-1-phenylpropyl]-spiro[cyclohexane-1,3′-indol]-2′(1′H)-one hydrochloride] |
| 94.6 | CNC[C@@H](O)[C@H](c1ccccc1)N1C(=O)C(C)(C)c2c(F)cccc21 [Example 196, 4-fluoro-1-[(1S,2R)-2-hydroxy-3-(methylamino)-1-phenylpropyl]-3,3-dimethyl-1,3-dihydro-2H-indol-2-one hydrochloride] |
| 98.7 | CNC[C@@H](O)[C@H](c1ccccc1)N1C(=O)C2(CCCC2)c2ccccc21 [Example 108, 1′-[(1S,2R)-2-hydroxy-3-(methylamino)-1-phenylpropyl]spiro-[cyclopentane-1,3′-indol]-2′(1′H)-one hydrochloride] |
| 97.8 | CNC[C@@H](O)[C@H](c1ccccc1)n1ccc2cccc(Cl)c21 [Example 148, (1S,2R)-1-(7-chloro-1H-indol-1-yl)-3-(methylamino)-1-phenylpropan-2-ol hydrochloride] |
| 98.1 | CNC[C@@H](O)[C@H](c1ccccc1)N1C(=O)C(C)(C)c2cccc(F)c21 [Example 99, 7-fluoro-1-[(1S,2R)-2-hydroxy-3-(methylamino)-1-phenylpropyl]-3,3-dimethyl-1,3-dihydro-2H-indol-2-one hydrochloride] |
| 26.5 | CN1CCN(C[C@@H](O)[C@H](c2cccc(F)c2)n2ccc3ccccc32)CC1 [Example 58, (1S,2R)-1-(3-fluorophenyl)-1-(1H-indol-1-yl)-3-(4-methylpiperazin-1-yl)propan-2-ol dihydrochloride] |
| 96.4 | CNC[C@@H](O)[C@H](c1cccc(F)c1)n1cc(-c2ccc(C)cc2)c2ccccc21 [Example 170, (1S,2R)-1-(3-fluorophenyl)-3-(methylamino)-1-[3-(4-methylphenyl)-1H-indol-1-yl]propan-2-ol hydrochloride] |

same assay, conditions: test compound 10 μM (stated in cell); [3H]NE uptake, MDCK-Net6 cells

| inhibition at 10 µM [%] | SMILES |
| --- | --- |
| 79.2 | Cc1cn([C@H](c2ccccc2)[C@@H](O)CNCC2CCCCC2)c2ccccc12 (racemic) [Example 9, (1RS,2SR)-3-[(cyclohexylmethyl)amino]-1-(3-methyl-1H-indol-1-yl)-1-phenylpropan-2-ol hydrochloride] |
